Literature values as cited in US10550245B2, “Alternative methods to control crosslinking in high impact polystyrene” (Fina Technology, Inc., priority 2015, dated 2020).
Like-named read-outs stand apart in the source and are kept apart here. Blank lines part the entries; values can stand above or below the molecule they belong to.

- Solubility (wt. %), Acetone (Table 2): 20 wt. %
- Solubility (wt. %), Benzene (Table 2): 43 wt. %
- Solubility (wt. %), Chloroform (Table 2): 39 wt. %
- Solubility (wt. %), Ethyl Acetate (Table 2): 46 wt. %
- Solubility (wt. %), Hexane (Table 2): 6 wt. %
- Solubility (wt. %), Methanol (Table 2): 1.4 wt. %
- Solubility (wt. %), Water (Table 2): <0.01 wt. %
Structure (SMILES): CCCCCCCCSc1nc(Nc2cc(C(C)(C)C)c(O)c(C(C)(C)C)c2)nc(SCCCCCCCC)n1 [BNX ® 565, 2,6-di-tert-butyl-4-(4,6-bis(octylthio)-1,3,5-triazin-2-ylamino)phenol]

Structure (SMILES): CC(C)(C)c1cc(CCC(=O)OCC(COC(=O)CCc2cc(C(C)(C)C)c(O)c(C(C)(C)C)c2)(COC(=O)CCc2cc(C(C)(C)C)c(O)c(C(C)(C)C)c2)COC(=O)CCc2cc(C(C)(C)C)c(O)c(C(C)(C)C)c2)cc(C(C)(C)C)c1O [BNX ® 1010, tetrakis[methylene-3(3′,5′-di-tert-butyl-4-hydroxyphenyl)propionate]methane]
- Solubility (10 g/100 ml Toluene) (10 g/100 ml Toluene, 25° C.): Clear (25° C.)
- Solubility, Acetone (at 25° C., Table 5B): 47%
- Solubility, Benzene (at 25° C., Table 5B): 56%
- Solubility, Chloroform (at 25° C., Table 5B): 71%
- Solubility, Ethanol (at 25° C., Table 5B): 1.5%
- Solubility, Ethyl Acetate (at 25° C., Table 5B): 46%
- Solubility, Hexane (at 25° C., Table 5B): 0.3%
- Solubility, Methanol (at 25° C., Table 5B): 1%
- Solubility, Methylene Chloride (at 25° C., Table 5B): 63%
- Solubility, Toluene (at 25° C., Table 5B): 60%
- Solubility, Water (at 25° C., Table 5B): <0.01% ^

- Solubility, 80% Caprolactam + 20% water (at 25° C.): 3 g/100 ml solvent
- Solubility, 95% Caprolactam + 5% water (at 25° C.): >20 g/100 ml solvent
- Solubility, Acetone (at 25° C.): 2 g/100 ml solvent
- Solubility, Benzene (at 25° C.): 0.01 g/100 ml solvent
- Solubility, Caprolactam (at 25° C.): >20 g/100 ml solvent
- Solubility, Chloroform (at 25° C.): 6 g/100 ml solvent
- Solubility, Ethyl Acetate (at 25° C.): 1 g/100 ml solvent
- Solubility, Hexane (at 25° C.): 0.01 g/100 ml solvent
- Solubility, Methanol (at 25° C.): 6 g/100 ml solvent
- Solubility, Water (at 25° C.): 0.01 g/100 ml solvent
Structure (SMILES): CC(C)(C)c1cc(CCC(=O)NCCCCCCNC(=O)CCc2cc(C(C)(C)C)c(O)c(C(C)(C)C)c2)cc(C(C)(C)C)c1O [BNX ® 1098]
